Data: ChEMBL document CHEMBL4842396, “Synthesis of 2-Prenylated Alkoxylated Benzopyrans by Horner-Wadsworth-Emmons Olefination with PPARα/γ Agonist Activity” (ACS Med Chem Lett, 2021)
The source made the active and inactive calls. The rule behind the calls is not given here.

Columns and labels:
[1] = target: T1, Peroxisome proliferator-activated receptor gamma (Homo sapiens) (UniProt P37231); experiment: Agonist activity at human PPARgamma at 10 uM; conditions: filed as agonist
T1 sequence (whole entry): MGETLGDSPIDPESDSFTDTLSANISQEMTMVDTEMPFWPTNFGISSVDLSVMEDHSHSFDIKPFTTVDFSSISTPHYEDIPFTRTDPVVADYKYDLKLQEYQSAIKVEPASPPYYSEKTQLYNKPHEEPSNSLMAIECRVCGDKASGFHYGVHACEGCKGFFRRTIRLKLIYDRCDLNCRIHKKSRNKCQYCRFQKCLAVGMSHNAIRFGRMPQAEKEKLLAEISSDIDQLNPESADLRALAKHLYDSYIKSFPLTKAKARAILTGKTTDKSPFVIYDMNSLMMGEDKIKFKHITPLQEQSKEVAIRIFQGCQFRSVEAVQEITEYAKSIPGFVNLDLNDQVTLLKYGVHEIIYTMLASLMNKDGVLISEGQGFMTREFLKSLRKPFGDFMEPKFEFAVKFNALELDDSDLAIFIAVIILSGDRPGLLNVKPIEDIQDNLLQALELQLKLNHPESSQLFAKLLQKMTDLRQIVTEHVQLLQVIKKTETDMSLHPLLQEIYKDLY

[2] = target: T2, Peroxisome proliferator-activated receptor alpha (Homo sapiens) (UniProt Q07869); experiment: Agonist activity at human PPARalpha at 10 uM; conditions: filed as agonist
T2 sequence (whole entry): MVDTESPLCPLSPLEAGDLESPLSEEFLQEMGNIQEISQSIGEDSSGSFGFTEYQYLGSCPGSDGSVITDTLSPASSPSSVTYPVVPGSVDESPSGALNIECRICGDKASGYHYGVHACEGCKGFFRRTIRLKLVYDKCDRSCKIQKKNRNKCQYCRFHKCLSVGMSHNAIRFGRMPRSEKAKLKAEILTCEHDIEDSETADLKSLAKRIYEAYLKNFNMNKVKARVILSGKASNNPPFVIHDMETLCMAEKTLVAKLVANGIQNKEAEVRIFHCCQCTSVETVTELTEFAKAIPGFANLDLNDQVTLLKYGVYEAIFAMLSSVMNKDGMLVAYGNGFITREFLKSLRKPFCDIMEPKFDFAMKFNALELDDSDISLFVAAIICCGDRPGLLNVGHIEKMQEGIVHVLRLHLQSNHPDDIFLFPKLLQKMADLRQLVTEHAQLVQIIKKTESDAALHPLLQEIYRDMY

Homo sapiens = species on record: Homo sapiens; experiment: Selectivity for agonist activity at human PPARalpha over agonist activity at human PPARgamma

SMILES	Activity [1]	Activity [2]	Selectivity ratio (Homo sapiens)
CC1(CC/C=C(\OCC(F)(F)F)C(=O)O)CCc2cc(OCc3ccccc3)ccc2O1 (configuration not stated)	Active	Active	1.73
Cc1cccc(Nc2cc(Cl)nc(SCC(=O)O)n2)c1C	–	Active	–
CCO/C(=C\CC/C(C)=C/CCC1(C)CCc2cc(OCc3ccccc3)ccc2O1)C(=O)O (configuration not stated)	Active	Active	0.64
CCOC(=O)/C(=C/CCC1(C)CCc2cc(OCc3ccccc3)ccc2O1)OCC(F)(F)F (configuration not stated)	Active	Active	–
CCOC(=O)/C(=C/CC/C(C)=C/CCC1(C)CCc2cc(OCc3ccccc3)ccc2O1)OCC(F)(F)F (configuration not stated)	Active	Active	–

More lines, now with the values ahead:

Activity [1]	Activity [2]	Selectivity ratio (Homo sapiens)	SMILES
Active	Active	–	CCOC(=O)/C(=C/CC/C(C)=C/CCC1(C)CCc2cc(OCc3ccccc3)ccc2O1)OCC (configuration not stated)
Active	Active	–	CCCOc1ccc2c(c1)CCC(C)(CC/C=C(\C)CC/C=C(\OCC)C(=O)OCC)O2 (configuration not stated)
Active	Active	–	CCOC(=O)/C(=C/CC/C(C)=C/CCC1(C)CCc2cc(OCc3ccc(F)cc3)ccc2O1)OCC (configuration not stated)
